From US8765716B2, “Pharmaceutical composition containing docetaxel-cyclodextrin inclusion complex and its preparing process” (Meridian Laboratories, Inc., priority 2006, dated 2014)
Where two headings read alike, the source gives them in different places.

Experiments:
[1] = Solid inclusion stability, 5-day acceleration test (light, high temperature, high humidity), HPLC content; format: physicochemical
Experimental: (§1) HPLC chromatographic conditions: chromatographic column ODS Cig (250 mm×4.6 mm); mobile phase: water:acetonitrile (53:47); flow rate: 1.0 ml/min; detection wavelength: 230 nm; detection time: 30.00 min; detection sensitivity: 1.0000AUFS.
Samples: docetaxel material; docetaxel/sulfobutyl-β-cyclodextrin inclusion (a, mass ratio of 1:17); docetaxel/hydroxypropyl-sulfobutyl-β-cyclodextrin inclusion (b, mass ratio of 1:17). Docetaxel materials and inclusions were divided into three portions of test samples equally and were subject to light, high temperature and high humidity acceleration tests respectively:
Samples were put in a sealed transparent container and then placed in an illumination box equipped with fluorescent light of 4500±500LX illumination intensity for 5 days. Sampling inspection analysis was conducted, and the test results were compared with the samples of 0 day.
Samples were placed in a clean sealed container at a temperature of 60° C. for 5 days. Sampling inspection analysis was conducted, and the test results were compared with the samples of 0 day.
Samples were placed in a sealed container of constant humidity at temperature of 25° C. and relative humidity of 90±5% for 5 days. Sampling inspection analysis was conducted, and the test results were compared with the samples of 0 day.

[2] = test system: advanced breast carcinoma; conditions: treatment of advanced breast carcinoma; cited from earlier work
[3] = cited from earlier work
[4] = Docetaxel stability test in solution (HPLC assay); format: physicochemical; conditions: normal saline solution
Experimental: as §1
Under the aforesaid HPLC chromatographic conditions, some docetaxel raw materials; docetaxel/sulfobuty-β-cyclodextrin inclusion (a) with a mass ratio of 1:17 and docetaxel/hydroxypropy-sulfobuty-β-cyclodextrin inclusion (b) with a mass ratio of 1:17 were taken and dissolved with normal saline solution, diluted for 100 times after 30 min ultrasonic wave treatment, placed still, […]

tubulin = conditions: versus paclitaxel; cited from earlier work
[5] = Inclusion solubilization test; format: physicochemical; conditions: thermodynamic from solid, docetaxel solubility in pure water, 25° C.
Experimental: Standard curve: 0.67 mg/ml docetaxel solution was prepared by dissolving docetaxel with ethanol, and diluted with pure water into […]˜20.1 μg/ml series solutions, then UV absorption value A was measured under 228 nm. A standard curve was plotted by A against concentration C (mg/ml) (A=13.881C+0.3577 (r=0.9998)).
The excessive docetaxel or inclusion in the pure water was oscillated for 72 h at 25° C.±1° C., filtered and placed still.

SMILES: CC(=O)O[C@@]12CO[C@@H]1C[C@H](O)[C@@]1(C)C(=O)[C@H](O)C3=C(C)[C@@H](OC(=O)[C@H](O)[C@@H](NC(=O)OC(C)(C)C)c4ccccc4)C[C@@](O)([C@@H](OC(=O)c4ccccc4)[C@H]21)C3(C)C (relative stereo) [Docetaxel, [2aR-(2aα,4β,4aβ,6β,9α,(αR*,βS*),11α,12α,12aβ,12bα)]-β-[[(1,1-dimethylethoxy)carbonyl]amino]-α-hydroxyphenyl propionic acid [12b-acetoxy-12-benzoyloxy-2a,3,4,4a,5,6,9,10,11,12,12a,12b-dodecahydro-4,6,11-trihydroxyl-4-a,8,13,13-tetramethyl-5-oxo-7,11-methylene-1H-pentacyclo-ene[3,4]benzo[1,2-b]tetraoxacyclo-9-base]acetate trihydrate]
- Content (%) 0 day ([1]; 0 day): 99.675%
- Content (%) Hight humitdity ([1]; 25° C., relative humidity 90±5%, 5 days): 83.877%
- Content (%) High temperature ([1]; 60° C., 5 days): 87.859%
- Content (%) Light ([1]; 4500±500LX, 5 days): 90.176%
- effective ratio [2]: 49%
- incidence rate of moderate and severe hypersusceptibility ([3]; after injection): 25.9%
- incidence rate of moderate hypersusceptibility or more ([3]; dosage 75 mg/m^2): 31%
- incidence rate of moderate hypersusceptibility or more ([3]; dosage 100 mg/m^2): 41.3%
- injection-part reaction rate ([3]; in vivo): up to 13.3%
- Content (%) 0 h ([4]; diluted 100 times, 0 h): 99.675%
- Content (%) 5 h ([4]; diluted 100 times, 5 h): 99.025%
- Content (%) 10 h ([4]; diluted 100 times, 10 h): 97.381%
- Content (%) 24 h ([4]; diluted 100 times, 24 h): 93.433%
- Content (%) 96 h ([4]; diluted 100 times, 96 h): 86.384%
- half-life ([4]; in solution, read-out: half-life of sample decomposition in solution (converted)): 15.1 days
- inhibitory activity of tubulin depolymerization relative to paclitaxel (tubulin): about 2 times
- solubility at 72 h [5]: 2.9 µg/mL
